Measured values reported in ChEMBL document CHEMBL5532720, “A Potent Solution for Tumor Growth and Angiogenesis Suppression via an ELR+CXCL-CXCR1/2 Pathway Inhibitor” (ACS Med Chem Lett, 2024).
Converted amounts (≈) assume the structure as drawn. The source made the active and inactive calls. The calls are words filed in the database; no cut-off is given here.

What was measured:
[1] = Tmax in NOD SCID mouse at 200 mg/kg, po; assay type: ADME, organism-based; conditions: in vivo
[2] = target: Mitogen-activated protein kinase kinase kinase 20 (Homo sapiens) (UniProt Q9NYL2); experiment: Inhibition of ZAK (unknown origin) at 10 uM in presence of ATP at Km concentration
Sequence of Mitogen-activated protein kinase kinase kinase 20 (Homo sapiens) (Q9NYL2 2-800 limits assumed): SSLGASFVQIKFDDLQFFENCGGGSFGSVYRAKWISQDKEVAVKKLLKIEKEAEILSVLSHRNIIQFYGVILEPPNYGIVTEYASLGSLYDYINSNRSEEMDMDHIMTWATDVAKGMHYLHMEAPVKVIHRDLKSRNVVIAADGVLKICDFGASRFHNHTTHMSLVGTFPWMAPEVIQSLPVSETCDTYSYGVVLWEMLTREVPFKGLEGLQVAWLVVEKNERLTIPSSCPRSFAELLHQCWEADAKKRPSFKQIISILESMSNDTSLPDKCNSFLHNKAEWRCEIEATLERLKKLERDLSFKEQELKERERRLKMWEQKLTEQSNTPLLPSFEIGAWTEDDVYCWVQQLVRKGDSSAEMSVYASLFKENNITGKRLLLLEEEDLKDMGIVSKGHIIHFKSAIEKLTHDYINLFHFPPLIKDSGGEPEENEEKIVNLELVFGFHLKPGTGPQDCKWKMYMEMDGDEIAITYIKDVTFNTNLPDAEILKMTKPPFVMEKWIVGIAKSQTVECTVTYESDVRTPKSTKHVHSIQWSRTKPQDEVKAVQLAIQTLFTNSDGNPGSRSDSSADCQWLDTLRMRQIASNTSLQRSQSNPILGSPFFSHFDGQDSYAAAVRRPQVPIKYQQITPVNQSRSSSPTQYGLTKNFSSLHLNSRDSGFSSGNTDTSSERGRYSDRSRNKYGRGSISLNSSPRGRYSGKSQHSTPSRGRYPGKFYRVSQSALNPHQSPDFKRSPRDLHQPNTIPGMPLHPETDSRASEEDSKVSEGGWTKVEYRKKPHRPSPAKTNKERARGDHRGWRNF

[3] = target: Casein kinase I isoform epsilon (Homo sapiens) (UniProt P49674); experiment: Inhibition of CSNK1E (unknown origin) at 10 uM in presence of ATP at Km concentration
[4] = target: Serine/threonine-protein kinase N2 (Homo sapiens) (UniProt Q16513); experiment: Inhibition of PKN2 (unknown origin) at 10 uM in presence of ATP at Km concentration
Sequence of Serine/threonine-protein kinase N2 (Homo sapiens) (Q16513 whole entry, looked up): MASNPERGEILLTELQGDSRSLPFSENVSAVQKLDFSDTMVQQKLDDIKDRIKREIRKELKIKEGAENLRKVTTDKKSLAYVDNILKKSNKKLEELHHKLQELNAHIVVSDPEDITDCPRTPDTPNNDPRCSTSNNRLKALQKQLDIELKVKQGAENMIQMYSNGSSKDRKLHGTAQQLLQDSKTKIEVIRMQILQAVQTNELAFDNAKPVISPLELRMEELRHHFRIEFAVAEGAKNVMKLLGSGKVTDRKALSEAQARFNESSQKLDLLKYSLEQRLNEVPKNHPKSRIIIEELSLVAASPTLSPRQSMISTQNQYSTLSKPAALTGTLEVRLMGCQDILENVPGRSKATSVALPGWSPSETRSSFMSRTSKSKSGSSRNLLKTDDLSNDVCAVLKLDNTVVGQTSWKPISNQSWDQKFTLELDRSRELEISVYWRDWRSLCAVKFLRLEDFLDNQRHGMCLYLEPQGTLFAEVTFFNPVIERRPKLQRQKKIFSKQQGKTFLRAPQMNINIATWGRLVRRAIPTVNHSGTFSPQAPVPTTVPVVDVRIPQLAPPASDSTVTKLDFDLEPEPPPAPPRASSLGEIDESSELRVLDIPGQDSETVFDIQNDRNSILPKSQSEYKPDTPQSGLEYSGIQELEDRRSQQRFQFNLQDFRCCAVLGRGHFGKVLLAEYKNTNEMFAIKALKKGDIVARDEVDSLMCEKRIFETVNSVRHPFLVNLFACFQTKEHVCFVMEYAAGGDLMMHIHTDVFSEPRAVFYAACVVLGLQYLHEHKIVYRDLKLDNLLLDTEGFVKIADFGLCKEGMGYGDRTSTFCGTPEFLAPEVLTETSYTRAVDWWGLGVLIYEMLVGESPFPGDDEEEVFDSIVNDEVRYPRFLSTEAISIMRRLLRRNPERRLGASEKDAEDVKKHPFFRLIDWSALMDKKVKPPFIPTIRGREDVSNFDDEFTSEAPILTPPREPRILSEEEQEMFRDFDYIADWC

[5] = target: Myosin-IIIb (Homo sapiens) (UniProt Q8WXR4); experiment: Inhibition of MYO3B (unknown origin) at 10 uM in presence of ATP at Km concentration
[6] = target: Misshapen-like kinase 1 (Homo sapiens) (UniProt Q8N4C8); experiment: Inhibition of MINK1 (unknown origin) at 10 uM in presence of ATP at Km concentration
[7] = target: Inhibitor of nuclear factor kappa-B kinase subunit beta (Homo sapiens) (UniProt O14920); experiment: Inhibition of IKBKB (unknown origin) at 10 uM in presence of ATP at Km concentration
[8] = target: Serine/threonine-protein kinase SIK3 (Homo sapiens) (UniProt Q9Y2K2); experiment: Inhibition of SIK3 (unknown origin) at 10 uM in presence of ATP at Km concentration
[9] = target: Aurora kinase B (Homo sapiens) (UniProt Q96GD4); experiment: Inhibition of AURKB (unknown origin) at 10 uM in presence of ATP at Km concentration
Sequence of Aurora kinase B (Homo sapiens) (Q96GD4 whole entry): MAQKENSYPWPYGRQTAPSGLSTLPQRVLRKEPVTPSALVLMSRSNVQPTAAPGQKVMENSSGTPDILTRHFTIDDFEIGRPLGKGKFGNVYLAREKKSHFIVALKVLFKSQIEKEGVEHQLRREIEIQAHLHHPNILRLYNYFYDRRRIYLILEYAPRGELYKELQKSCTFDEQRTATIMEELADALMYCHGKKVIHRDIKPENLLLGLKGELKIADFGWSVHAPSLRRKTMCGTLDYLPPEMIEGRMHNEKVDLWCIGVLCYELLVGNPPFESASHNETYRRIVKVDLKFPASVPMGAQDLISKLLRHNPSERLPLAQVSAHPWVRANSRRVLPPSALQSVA

[10] = AUC (0 to infinity) in NOD SCID mouse at 50 mg/kg, po; assay type: ADME, organism-based; conditions: in vivo
[11] = Oral bioavailability in NOD SCID mouse at 200 mg/kg; assay type: ADME, organism-based; conditions: in vivo
[12] = target: Protein kinase C eta type (Homo sapiens) (UniProt P24723); experiment: Inhibition of PRKCH (unknown origin) at 10 uM in presence of ATP at Km concentration
[13] = Stability in mouse hepatocytes assessed as intrinsic clearance measured per 10^6 cells; assay type: ADME, cell-based, Hepatocyte; conditions: read-out: CLH
[14] = target: Interleukin-1 receptor-associated kinase 4 (Homo sapiens) (UniProt Q9NWZ3); experiment: Inhibition of IRAK4 (unknown origin) at 10 uM in presence of ATP at Km concentration
[15] = Aqueous solubility of compound in water; assay type: physicochemical
RCC4 = experiment: Antiproliferative activity against human RCC4 cells incubated for 48 hrs by XTT assay; assay type: functional, cell-based; conditions: RCC4, 48 h
A498 [16] = experiment: Downregulation of CXCL8 mRNA expression in human A498 cells at 1 to 2.5 uM incubated for 48 hrs by qPCR analysis; assay type: functional, cell-based; conditions: dose 1-2.5 µM
[17] = Stability in human hepatocytes assessed as half-life; assay type: ADME, cell-based, Hepatocyte
[18] = target: Ephrin type-A receptor 2 (Homo sapiens) (UniProt P29317); experiment: Inhibition of EPHA2 (unknown origin) at 10 uM in presence of ATP at Km concentration
[19] = Genotoxicity in Salmonella typhimurium TA1535 upto 100 uM in presence of S9 fraction by Ames test; assay type: toxicity, subcellular; conditions: salmonella enterica subsp. enterica serovar typhimurium, s9, 100 µM
[20] = target: Angiopoietin-1 receptor (Homo sapiens) (UniProt Q02763); experiment: Inhibition of TEK (unknown origin) at 10 uM in presence of ATP at Km concentration
[21] = Stability in human plasma assessed as half-life; assay type: ADME, cell-free
[22] = Cmax in NOD SCID mouse at 100 mg/kg, po; assay type: ADME, organism-based; conditions: in vivo
[23] = target: Mitogen-activated protein kinase 15 (Homo sapiens) (UniProt Q8TD08); experiment: Inhibition of MAPK15 (unknown origin) at 10 uM in presence of ATP at Km concentration
Sequence of Mitogen-activated protein kinase 15 (Homo sapiens) (Q8TD08 whole entry): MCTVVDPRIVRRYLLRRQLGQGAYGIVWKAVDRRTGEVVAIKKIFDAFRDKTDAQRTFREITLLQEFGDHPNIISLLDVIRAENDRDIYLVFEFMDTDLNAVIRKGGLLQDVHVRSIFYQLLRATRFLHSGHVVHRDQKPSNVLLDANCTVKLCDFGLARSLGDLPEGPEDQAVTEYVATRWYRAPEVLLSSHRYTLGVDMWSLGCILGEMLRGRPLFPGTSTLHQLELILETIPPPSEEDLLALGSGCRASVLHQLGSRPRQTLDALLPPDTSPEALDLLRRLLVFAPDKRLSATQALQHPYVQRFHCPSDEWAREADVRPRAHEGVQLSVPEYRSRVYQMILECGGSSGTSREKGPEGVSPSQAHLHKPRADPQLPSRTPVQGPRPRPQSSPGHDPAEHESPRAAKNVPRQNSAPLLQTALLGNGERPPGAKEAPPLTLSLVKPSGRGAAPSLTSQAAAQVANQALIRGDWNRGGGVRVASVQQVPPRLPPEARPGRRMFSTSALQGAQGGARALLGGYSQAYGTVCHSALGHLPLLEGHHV

[24] = Stability in mouse microsomes assessed as intrinsic clearance; assay type: ADME, Microsome
[25] = Stability in mouse plasma assessed as half-life; assay type: ADME, cell-free
[26] = target: Hepatocyte growth factor receptor (Homo sapiens) (UniProt P08581); experiment: Inhibition of MET (unknown origin) at 10 uM in presence of ATP at Km concentration
[27] = Antiproliferative activity against human Cisplatin and radiotherapy resistant CAL33RR cells incubated for 48 hrs by XTT assay; assay type: functional, cell-based
[28] = Stability in human plasma assessed as compound remaining measured after 120 mins; assay type: ADME, cell-free; conditions: read-out: Stability
[29] = target: Phosphatidylinositol 4-phosphate 5-kinase type-1 gamma (Homo sapiens) (UniProt O60331); experiment: Inhibition of PIP5K1C (unknown origin) at 10 uM in presence of ATP at Km concentration
Sequence of Phosphatidylinositol 4-phosphate 5-kinase type-1 gamma (Homo sapiens) (O60331 whole entry): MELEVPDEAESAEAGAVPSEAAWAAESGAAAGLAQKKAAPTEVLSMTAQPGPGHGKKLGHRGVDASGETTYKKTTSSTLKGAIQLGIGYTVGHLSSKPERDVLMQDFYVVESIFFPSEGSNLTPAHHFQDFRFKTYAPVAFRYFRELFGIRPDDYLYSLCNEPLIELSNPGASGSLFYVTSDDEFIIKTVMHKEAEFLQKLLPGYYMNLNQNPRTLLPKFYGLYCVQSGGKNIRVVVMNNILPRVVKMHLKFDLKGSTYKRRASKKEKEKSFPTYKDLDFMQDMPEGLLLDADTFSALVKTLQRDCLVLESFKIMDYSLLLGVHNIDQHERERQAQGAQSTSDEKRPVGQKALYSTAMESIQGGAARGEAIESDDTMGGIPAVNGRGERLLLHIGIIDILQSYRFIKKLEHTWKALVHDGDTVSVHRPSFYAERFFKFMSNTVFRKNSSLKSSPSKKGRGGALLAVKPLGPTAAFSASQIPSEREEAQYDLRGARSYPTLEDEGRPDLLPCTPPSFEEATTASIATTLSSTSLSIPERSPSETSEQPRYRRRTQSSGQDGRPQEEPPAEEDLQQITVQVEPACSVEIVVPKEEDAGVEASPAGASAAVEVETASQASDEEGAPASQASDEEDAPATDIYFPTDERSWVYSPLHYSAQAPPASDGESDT

[30] = target: Insulin receptor (Homo sapiens) (UniProt P06213); experiment: Inhibition of INSR (unknown origin) at 10 uM in presence of ATP at Km concentration
[31] = AUC (0 to infinity) in NOD SCID mouse at 1 mg/kg, iv; assay type: ADME, organism-based; conditions: in vivo
[32] = Half-life in NOD SCID mouse at 1 mg/kg, iv; assay type: ADME, organism-based; conditions: in vivo
A498 [33] = experiment: Downregulation of CXCL1 mRNA expression in human A498 cells at 1 to 2.5 uM incubated for 48 hrs by qPCR analysis; assay type: functional, cell-based; conditions: dose 1-2.5 µM
[34] = target: Serine/threonine-protein kinase D2 (Homo sapiens) (UniProt Q9BZL6); experiment: Inhibition of PRKD2 (unknown origin) at 10 uM in presence of ATP at Km concentration
A498 [35] = experiment: Antimetastatic activity against human A498 cells labeled with vybrant DiD cell-labeling solution xenografted in zebrafish embryo assessed as inhibition of neovascularization by measuring decrease in fluorescence intensity of GFP labeled blood vessel at 1 uM incubated for 72 hrs by fluorescence microscopic imaging analysis; assay type: functional, cell-based
[36] = target: Tyrosine-protein kinase Fyn (Homo sapiens) (UniProt P06241); experiment: Inhibition of FYN (unknown origin) at 10 uM in presence of ATP at Km concentration
Sequence of Tyrosine-protein kinase Fyn (Homo sapiens) (P06241 2-537 limits assumed): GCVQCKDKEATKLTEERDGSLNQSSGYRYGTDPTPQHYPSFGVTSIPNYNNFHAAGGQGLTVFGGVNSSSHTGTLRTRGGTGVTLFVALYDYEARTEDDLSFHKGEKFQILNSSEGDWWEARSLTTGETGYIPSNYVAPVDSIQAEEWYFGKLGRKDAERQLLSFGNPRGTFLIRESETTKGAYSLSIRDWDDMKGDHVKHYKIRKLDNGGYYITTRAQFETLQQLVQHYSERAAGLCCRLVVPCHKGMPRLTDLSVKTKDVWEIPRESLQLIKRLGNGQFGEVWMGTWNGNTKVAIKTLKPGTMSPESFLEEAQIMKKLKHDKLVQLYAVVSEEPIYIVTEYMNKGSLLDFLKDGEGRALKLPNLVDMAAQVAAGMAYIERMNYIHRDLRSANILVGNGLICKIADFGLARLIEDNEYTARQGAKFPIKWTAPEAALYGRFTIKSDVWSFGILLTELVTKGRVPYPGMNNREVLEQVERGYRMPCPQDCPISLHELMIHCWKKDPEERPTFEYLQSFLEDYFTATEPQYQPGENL

TIME = experiment: Antiangiogenic activity in human TIME cells assessed as disruption of blood vessel network at 2.5 uM incubated for 24 hrs; assay type: functional, cell-based
[37] = Cmax in NOD SCID mouse at 50 mg/kg, po; assay type: ADME, organism-based; conditions: in vivo
[38] = target: Tyrosine-protein kinase receptor UFO (Homo sapiens) (UniProt P30530); experiment: Inhibition of AXL (unknown origin) at 10 uM in presence of ATP at Km concentration
[39] = Antiproliferative activity against human Cisplatin and radiotherapy resistant CAL27RR cells incubated for 48 hrs by XTT assay; assay type: functional, cell-based
[40] = Tmax in NOD SCID mouse at 100 mg/kg, po; assay type: ADME, organism-based; conditions: in vivo
CAL-27 = experiment: Antiproliferative activity against human CAL-27 cells incubated for 48 hrs by XTT assay; assay type: functional, cell-based; conditions: CAL-27, 48 h
[41] = target: Ephrin type-B receptor 4 (Homo sapiens) (UniProt P54760); experiment: Inhibition of EPHB4 (unknown origin) at 10 uM in presence of ATP at Km concentration
Sequence of Ephrin type-B receptor 4 (Homo sapiens) (P54760 whole entry): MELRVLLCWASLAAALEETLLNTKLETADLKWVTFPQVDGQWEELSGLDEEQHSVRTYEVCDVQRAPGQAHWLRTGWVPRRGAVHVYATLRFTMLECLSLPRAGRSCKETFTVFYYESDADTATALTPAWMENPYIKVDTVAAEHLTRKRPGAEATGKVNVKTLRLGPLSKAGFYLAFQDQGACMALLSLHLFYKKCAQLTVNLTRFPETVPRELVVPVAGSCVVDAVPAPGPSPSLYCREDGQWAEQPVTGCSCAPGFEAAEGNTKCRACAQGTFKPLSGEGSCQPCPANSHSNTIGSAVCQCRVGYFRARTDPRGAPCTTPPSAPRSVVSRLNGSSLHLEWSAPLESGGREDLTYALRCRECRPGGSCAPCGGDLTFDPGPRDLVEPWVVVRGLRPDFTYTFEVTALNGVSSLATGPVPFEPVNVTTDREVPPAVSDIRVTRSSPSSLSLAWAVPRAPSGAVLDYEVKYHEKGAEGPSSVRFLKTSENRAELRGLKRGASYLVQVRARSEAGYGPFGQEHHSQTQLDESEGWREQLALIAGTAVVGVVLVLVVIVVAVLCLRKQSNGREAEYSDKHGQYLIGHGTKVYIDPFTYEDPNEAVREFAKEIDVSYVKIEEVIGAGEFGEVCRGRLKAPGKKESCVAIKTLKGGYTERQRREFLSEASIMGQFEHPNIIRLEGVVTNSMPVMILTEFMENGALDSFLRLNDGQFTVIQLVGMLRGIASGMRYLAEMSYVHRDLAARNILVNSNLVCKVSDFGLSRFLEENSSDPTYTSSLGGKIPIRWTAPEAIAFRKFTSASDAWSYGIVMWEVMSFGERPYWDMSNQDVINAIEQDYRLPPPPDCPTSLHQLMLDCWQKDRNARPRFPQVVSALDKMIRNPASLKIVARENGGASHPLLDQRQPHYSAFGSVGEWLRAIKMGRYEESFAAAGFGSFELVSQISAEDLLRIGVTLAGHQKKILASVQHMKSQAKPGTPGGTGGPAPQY

## O=C(Nc1cc(Cl)cc(Cl)c1)Nc1nc2ccc([N+](=O)[O-])cc2s1
[1]
  Tmax: 1 h
[2]
  inhibition: inactive
[3]
  inhibition: inactive
[4]
  inhibition: inactive
[5]
  inhibition: inactive
[6]
  inhibition: inactive
[7]
  inhibition: inactive
[8]
  inhibition: inactive
[9]
  inhibition: inactive
[10]
  AUC(0-inf): 8390 ng·h/mL
[11]
  bioavailability: 22%
[12]
  inhibition: inactive
[13]
  hepatocyte CLint: 65.8 µL/min/1e6 cells
[14]
  inhibition: inactive
[15]
  solubility: 1.2 µM (≈ 0.46 µg/mL)
RCC4
  IC50: 2 µM
A498 [16]
  Activity: Active
[17]
  half-life: 0.643 h
[18]
  inhibition: inactive
[19]
  Activity: Non-Toxic
[20]
  inhibition: inactive
[21]
  half-life: > 4.82 h
[22]
  Cmax: 2800 nM
[23]
  inhibition: inactive
[24]
  microsomal CLint: < 116 µL/min/mg
[25]
  half-life: > 4.82 h
[26]
  inhibition: inactive
[27]
  IC50: 4 µM
[28]
  remaining at 2 h: 85%
[29]
  inhibition: inactive
[30]
  inhibition: inactive
[31]
  AUC(0-inf): 433 ng·h/mL
[32]
  half-life: 0.4 h
A498 [33]
  Activity: Active
[34]
  inhibition: inactive
A498 [35]
  Activity: Active
[36]
  inhibition: inactive
TIME
  Activity: Active
[37]
  Cmax: 2000 nM
[38]
  inhibition: inactive
[39]
  IC50: 2.5 µM
[40]
  Tmax: 1.5 h
CAL-27
  IC50: 2.5 µM
[41]
  inhibition: inactive
